These are literature values, as cited in patent publication US20100112083A1, “PHARMACEUTICAL PRODUCT FOR MODULATING BONE FORMATION, PROCESS FOR MODULATING BONE FORMATION” (priority 2007, published 2010).

In the data set the test system is mesenchymal stem cells. As to conditions: by activating sirtuin protein Sirt1.

For the compound `Oc1ccc(/C=C/c2cc(O)cc(O)c2)cc1` [trans-resveratrol], the “differentiation of mesenchymal stem cells into osteoblasts” value is “promoted the selective differentiation”.
